From patent EP0318860B1, “Substituted alkylamine derivatives” (BANYU PHARMACEUTICAL CO., LTD., priority 1987, dated 1989) come the findings set out here.

Molecules are shown by their SMILES. Structures can show the parent of a compound that is named as a salt. Some results are limits rather than exact numbers.

The target in the assay is T1, rat squalene epoxidase (Rattus norvegicus, UniProt P52020).
T1 construct: Livers were extracted and homogenized; from tissue; host or cells: liver of SD-strain female rats; microsomes solubilized with 2 % Triton X-100, 105000 x g supernatant
T1 sequence (P52020 whole entry): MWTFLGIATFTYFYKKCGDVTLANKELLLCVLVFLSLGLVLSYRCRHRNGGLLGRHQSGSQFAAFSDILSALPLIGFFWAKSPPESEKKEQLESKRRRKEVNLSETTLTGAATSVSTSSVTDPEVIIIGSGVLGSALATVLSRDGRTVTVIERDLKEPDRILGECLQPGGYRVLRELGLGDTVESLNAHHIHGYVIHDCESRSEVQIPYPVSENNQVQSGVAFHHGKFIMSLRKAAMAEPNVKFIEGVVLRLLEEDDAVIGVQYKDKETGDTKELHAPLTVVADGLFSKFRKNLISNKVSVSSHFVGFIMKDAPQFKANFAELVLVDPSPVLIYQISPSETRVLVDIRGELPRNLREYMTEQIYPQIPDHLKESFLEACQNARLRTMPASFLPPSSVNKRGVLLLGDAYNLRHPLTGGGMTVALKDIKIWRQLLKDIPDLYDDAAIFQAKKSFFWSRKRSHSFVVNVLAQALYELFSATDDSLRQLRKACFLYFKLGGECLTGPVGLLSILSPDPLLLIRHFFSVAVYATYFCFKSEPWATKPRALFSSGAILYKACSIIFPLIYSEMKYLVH
The assay is described as follows: Squalene epoxidase inhibiting activity (3H-squalene to squalene-2,3-epoxide, solubilized liver microsome fraction). Type of assay: biochemical. As to conditions: 8 µM 3H-squalene, 37 °C, 30 minutes, read-out: 50 % inhibitory concentration (IC50). The protocol: The rat squalene epoxidase was prepared by the method described in J. Biol. Chem., vol.
SD-strain female rats were killed by exsanguination. Livers were extracted and homogenized with in the presence of 2 volumes of 0.1M Tris-HCl buffer (pH 7.5). The homogenate was centrifuged at 9750 Xg for 10 minutes. The supernatant fraction was further centrifuged at 105000 Xg for 1 hour. The sediment was washed with 0.1M Tris-HCl buffer (pH 7.5), and then centrifuged at 105000 Xg for 1 hour. The microsomes obtained were suspended in 0.1M Tris-HCl buffer (pH 7.5) so that the amount of proteins was 40 mg/ml, and under ice cooling, the suspension was stirred in the presence of 2 % Triton X-100 to solubilize the enzyme. After the solubilization, the solution was diluted to a Triton X-100 concentration of 0.5 % with 1 mM EDTA and 1 mM dithiothreitol, and centrifuged at 105000 Xg for 1 hour. The resulting supernatant fraction was used in the following test as a squalene epoxidase fraction.
The squalene epoxidase activity was assayed in accordance with the method described in J. Biol. Chem., vol.
Three microliters of a dimethyl sulfoxide solution of a test drug was added to a solution composed of 0.2 ml of the squalene epoxidase fraction prepared in (1) [proteins 0.4 mg, 0.5 % Triton X-100, […] Tris-HCl buffer (pH 7.5)], 100 µM FAD, 1 mM NADPH, 1 mM EDTA and 8 µM ³H-squalene-Tween 80 emulsion to adjust the total amount of the solution to 0.3 ml. The solution was incubated at 37 °C for 30 minutes with shaking. Then, 0.3 ml of a 10 % methanolic potassium hydroxide was added to stop the reaction, and the reaction mixture was left to stand at room temperature for 1 hour. The non-saponified material was extracted with petroleum ether, and the solvent was evaporated under a nitrogen stream. […] The position of the resulting ³H-squalene-2,3-epoxide on TLC was determined using ergosterol acetate as a marker, and the ³H-squalene-2,3-epoxide portion on the TLC was cut off. The TLC strip was immersed in a toluene-type scintillator, and measured by a liquid scintillation counter.
Consider `CN(C/C=C/C#CC(C)(C)C)Cc1cccc(OCc2cccc(-c3ccccc3)c2)c1` [Compound 74, (E)-N-(6,6-dimethyl-2-hepten-4-ynyl)-N-methyl-3-(3-phenylbenzyloxy)benzylamine hydrochloride], for which the IC50 was found to be 570 nM.

With `CN(C/C=C/C#CC(C)(C)C)Cc1cccc(OCc2cccc(-c3ccco3)c2)c1` [Compound 75, (E)-N-(6,6-dimethyl-2-hepten-4-ynyl)-N-methyl-3-[3-(2-furyl)benzyloxy]benzylamine hydrochloride], the IC50 came to 140 nM.

In the case of `CN(C/C=C/C#CC(C)(C)C)Cc1cccc(OCc2cccc(-c3ncco3)c2)c1` [Compound 76, (E)-N-(6,6-dimethyl-2-hepten-4-ynyl)-N-methyl-3-[3-(2-oxazolyl)benzyloxy]benzylamine], the IC50 is 1200 nM.

In the case of `CN(C/C=C/C#CC(C)(C)C)Cc1cccc(OCc2cccc(-c3nccs3)c2)c1` [Compound 77, (E)-N-(6,6-dimethyl-2-hepten-4-ynyl)-N-methyl-3-[3-(2-thiazolyl)benzyloxy]benzylamine], the IC50 was 1200 nM.

On to `CN(C/C=C/C#CC(C)(C)C)Cc1cccc(OCc2cccc(-n3cccc3)c2)c1` [Compound 81, (E)-N-(6,6-dimethyl-2-hepten-4-ynyl)-N-methyl-3-[3-(1-pyrrolyl)benzyloxy]benzylamine], for which the IC50 turned out to be 14 nM.

Consider `Cc1ccoc1COc1cccc(CN(C)C/C=C/C#CC(C)(C)C)c1` [Compound 82, (E)-N-(6,6-dimethyl-2-hepten-4-ynyl)-N-methyl-[(3-methyl-2-furyl)methyloxy]benzylamine], for which the IC50 is 870 nM.

Take `Cc1occc1COc1cccc(CN(C)C/C=C/C#CC(C)(C)C)c1` [Compound 83, (E)-N-(6,6-dimethyl-2-hepten-4-ynyl)-N-methyl-3-[(2-methyl-3-furyl)methyloxy]benzylamine]: the IC50 worked out at 1900 nM.

As for `CN(C/C=C/C#CC(C)(C)C)Cc1cccc(OCc2cccs2)c1` [Compound 86, (E)-N-(6,6-dimethyl-2-hepten-4-ynyl)-N-methyl-3-(2-thienylmethyloxy)benzylamine], the IC50 stood at 3300 nM.

Regarding `CN(C/C=C/C#CC(C)(C)C)Cc1cccc(OCc2cccc3cccnc23)c1` [Compound 87, (E)-N-(6,6-dimethyl-2-hepten-4-ynyl)-N-methyl-3-(8-quinolylmethyloxy)benzylamine hydrochloride], the IC50 was 3500 nM.

For the compound `C/C=C(\C)COc1cccc(CN(C)C/C=C/C#CC(C)(C)C)c1` [Compound 90, N-[(E)-6,6-dimethyl-2-hepten-4-ynyl]-N-methyl-3-[(E)-2-methyl-2-butenyloxy]benzylamine hydrochloride], the IC50 is 5500 nM.

For `CC(C)=C(C)COc1cccc(CN(C)C/C=C/C#CC(C)(C)C)c1` [Compound 92, (E)-N-(6,6-dimethyl-2-hepten-4-ynyl)-N-methyl-3-(2,3-dimethyl-2-butenyloxy)benzylamine], the IC50 came out at 3300 nM.

For the compound `CN(C/C=C/C#CC(C)(C)C)Cc1cccc(OCc2cccc(C=O)c2)c1` [Compound 95, (E)-N-(6,6-dimethyl-2-hepten-4-ynyl)-N-methyl-3-(3-formylbenzyloxy)benzylamine], the IC50 stood at 6800 nM.

In the case of `CN(C/C=C/C#CC(C)(C)C)Cc1cccc(OCc2cccc(CO)c2)c1` [Compound 96, (E)-N-(6,6-dimethyl-2-hepten-4-ynyl)-N-methyl-3-(3-hydroxymethylbenzyloxy)benzylamine], the IC50 is 840 nM.

`Cc1ccccc1/C=C/c1cccc(CN(C)C/C=C/C#CC(C)(C)C)c1` [Compound 99, N-[(E)-6,6-dimethyl-2-hepten-4-ynyl]-N-methyl-3-[(E)-o-methylstyryl]benzylamine]: the IC50 was determined as 2000 nM.

For `CN(C/C=C/C#CC(C)(C)C)Cc1cccc(/C=C/c2cccc3ccccc23)c1` [Compound 100, N-[(E)-6,6-dimethyl-2-hepten-4-ynyl]-N-methyl-3-[(E)-2-(1-naphthylvinyl)]benzylamine], the IC50 is 120 nM.

In the case of `CN(C/C=C/C#CC(C)(C)C)Cc1cccc(C#Cc2ccccc2)c1` [Compound 101, (E)-N-(6,6-dimethyl-2-hepten-4-ynyl)-N-methyl-3-(2-phenylethynyl)benzylamine], the IC50 amounted to 2100 nM.

For the compound `CN(C/C=C/C#CC(C)(C)C)Cc1cccc(NCc2ccccc2)c1` [Compound 102, (E)-N-(6,6-dimethyl-2-hepten-4-ynyl)-N-methyl-3-benzylaminobenzylamine], the IC50 was 2100 nM.

Regarding `CN(C/C=C/C#CC(C)(C)C)Cc1cccc(CNc2ccccc2)c1` [Compound 104, (E)-N-[6,6-dimethyl-2-hepten-4-ynyl]-N-methyl-3-anilinomethylbenzylamine hydrochloride], the IC50 was 7700 nM.

With `CN(C/C=C/C#CC(C)(C)C)Cc1cccc(/C=C/c2ccccn2)c1` [Compound 108, (E)-N-(6,6-dimethyl-2-hepten-4-ynyl)-N-methyl-3-[(E)-2-(2-pyridyl)vinyl]benzylamine], the IC50 worked out at 450 nM.

As for `Cc1ccccc1COc1ccnc(CN(C)C/C=C/C#CC(C)(C)C)c1` [Compound 112, (E)-N-(6,6-dimethyl-2-hepten-4-ynyl)-N-methyl-4-(2-methylbenzyloxy)-2-pyridylmethylamine], the IC50 came out at 690 nM.

Consider `CN(C/C=C/C#CC(C)(C)C)Cc1ccc(/C=C/c2ccccc2)o1` [Compound 115, N-[(E)-6,6-dimethyl-2-hepten-4-ynyl]-N-methyl-5-[(E)-styryl]furfurylamine], for which the IC50 came out at 270 nM.

Take `CN(C/C=C/C#CC(C)(C)C)Cc1csc(/C=C/c2ccccc2)n1` [Compound 117, N-[(E)-6,6-dimethyl-2-hepten-4-ynyl]-N-methyl-2-[(E)-styryl]-4-thiazolylmethylamine]: the IC50 stood at 520 nM.

Turning to `CCN(C/C=C/C#CC(C)(C)C)Cc1cccc(OCc2cccc(-n3cccc3)c2)c1` [Compound 119, (E)-N-(6,6-dimethyl-2-hepten-4-ynyl)-N-ethyl-3-[3-(1-pyrrolyl)benzyloxy]benzylamine], the IC50 was 7.1 nM.

Take `CCN(C/C=C/C#CC(C)(C)C)Cc1cccc(OCc2cccc(-c3cnco3)c2)c1` [Compound 120, (E)-N-(6,6-dimethyl-2-hepten-4-ynyl)-N-ethyl-3-[3-(5-oxazolyl)benzyloxy]benzylamine]: the IC50 was 2.7 nM.

Turning to `CCN(C/C=C/C#CC(C)(C)C)Cc1cccc(OCc2cccc(-c3cncs3)c2)c1` [Compound 121, (E)-N-(6,6-dimethyl-2-hepten-4-ynyl)-N-ethyl-3-[3-(5-thiazolyl)benzyloxy]benzylamine], the IC50 came out at 26 nM.

As to `CCCN(C/C=C/C#CC(C)(C)C)Cc1cccc(OCc2cccc(-n3cccc3)c2)c1` [Compound 122, (E)-N-(6,6-dimethyl-2-hepten-4-ynyl)-N-propyl-3-[3-(1-pyrrolyl)benzyloxy]benzylamine], the IC50 was 13 nM.

For the compound `CCCN(C/C=C/C#CC(C)(C)C)Cc1cccc(OCc2cccc(-c3cnco3)c2)c1` [Compound 123, (E)-N-(6,6-dimethyl-2-hepten-4-ynyl)-N-propyl-3-[3-(5-oxazolyl)benzyloxy]benzylamine], the IC50 was determined as 34 nM.

As for `COC(C)(C)C#C/C=C/CN(C)Cc1cccc(OCc2ccccc2)c1` [Compound 126, (E)-N-(6-methoxy-6-methyl-2-hepten-4-ynyl)-N-methyl-3-benzyloxybenzylamine], the IC50 is 2200 nM.

Regarding `Cc1ccccc1COc1cccc(CN(C)C/C=C/C#CC2(C)CC2)c1` [Compound 131, (E)-N-methyl-N-[5-(1-methylcyclopropyl)-2-penten-4-ynyl]-3-(2-methylbenzyloxy)benzylamine], the IC50 was found to be 1000 nM.

With `Cc1ccccc1COc1cccc(CN(C)C/C=C/C=C/C(C)(C)C)c1` [Compound 132, (E),(E)-N-(6,6-dimethyl-2,4-heptadienyl)-N-methyl-3-(2-methylbenzyloxy)benzylamine], the IC50 amounted to 5400 nM.

Consider `CN(C/C=C/c1ccccc1)Cc1cccc2ccccc12` [naftifine, reference compound], for which the IC50 is greater than 100000 nM.
